Results on four molecules are retold here after the supplement of paper PMC4862054.

What all share (conditions): incubation time: 72 h
The subject of assay [1] is CAL-120. Description: normalised viability (% of control), CellTiter-Blue; higher = more viable cells (about 100 = DMSO control). Summed up: (§1)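 Each entry is normalised viability at a single listed concentration within a series. It comes from breast cancer cell lines incubated 72 h with compound in 384-well plates, then measured with CellTiter-Blue fluorescence at 560/590 nm. Every plate was normalised between vehicle (100) and a positive kill control (0).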
A general note: Resazurin is reduced to fluorescent resorufin, in cell work by metabolically active cells.

Assay [2] concerns CAL-51. Described as above. The method, boiled down:
as §1

Assay [3] concerns MDA-MB-436. The assay is described as above. The method, boiled down:
as §1

For assay [4], the system named is CAL-85-1. The assay is described as above. The method, boiled down:
as §1

In assay [5] the test system is MDA-MB-468. Described as above. The method, boiled down: as §1
Assay [6] concerns Hs578T. Described as above. Summed up: as §1
Assay [7] has as its system HCC1599. Described as above. The method, boiled down: as §1
The subject of assay [8] is BT-549. Description: drug sensitivity score (DSS), CellTox Green (DSS (AUC-based score)); higher = stronger drug effect (viability inhibition or cytotoxicity); extreme values may be limits of the assay. The method, boiled down: (§2)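 Using 20 µl of cell suspension per well, breast cancer cell lines were seeded into 384-well plates pre-loaded with compound at 5 concentrations in 10-fold steps across a compound-specific 10,000-fold range. Incubation lasted 72 h, after which CellTox Green fluorescence at 485/520 nm and then CellTiter-Glo luminescence, following 10 min at room temperature, were recorded. Each plate was normalised to 0.1 % DMSO and a positive kill control before the drug sensitivity score was derived from the area under the fitted dose-response curve.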

The subject of assay [9] is HDQ-P1. The assay is described as above. Summed up: as §2
The subject of assay [10] is DU-4475. The description is as above. Summed up:
as §2

For assay [11], the system named is MDA-MB-231. The description is as above. The method, boiled down: as §2
Assay [12] concerns CAL-120. The assay is described as above. Summed up: as §2
In assay [13] the test system is MFM-223. Described as above. The method, boiled down: as §2
The test system of assay [14] is CAL-51. Described as above. The method, boiled down:
as §2

For assay [15], the system named is MCF-10A. Described as above. The method, boiled down:
as §2

Assay [16] relates to MDA-MB-453. The assay is described as above. The method, boiled down: as §2
Assay [17] concerns MDA-MB-436. Described as above. The method, boiled down: as §2
Assay [18] relates to CAL-85-1. The assay is described as above. Summed up:
as §2

For assay [19], the system named is MDA-MB-468. The description is as above. Summed up: as §2
Assay [20] deals with Hs578T. Described as above. The method, boiled down: as §2
The subject of assay [21] is HCC1599. Described as above. The method, boiled down:
as §2

The subject of assay [22] is BT-474. The assay is described as above. The method, boiled down:
as §2

Assay [23] relates to HCC1143. The description is as above. Summed up: as §2
Assay [24] concerns HCC1937. Described as above. The method, boiled down: as §2
The test system of assay [25] is CAL-148. The assay is described as above. Summed up: as §2

For the molecule `CC(=O)c1c(C)c2cnc(Nc3ccc(N4CCNCC4)cn3)nc2n(C2CCCC2)c1=O`, the normalised viability in assay [1] (10 nM) was found to be 79.4%; in assay [1] (1000 nM) it was 65.2%; in assay [1] (10000 nM), 57.4%; in assay [2] (3 nM) it was 106%; in assay [2] (30 nM), 99.8%; in assay [2] (100 nM), 93.7%. The normalised viability in [3] (10 nM) amounted to 78.1%; in assay [3] (1000 nM), 36.7%; in assay [3] (10000 nM), 89.8%; in assay [4] (3 nM), 96.2%; in assay [4] (30 nM), 102%; in [4] (100 nM) it was 91.4%. For the same molecule, the normalised viability came to 115% in [5] (10 nM); 99.8% in assay [5] (1000 nM); 85.3% in assay [5] (10000 nM); 100% in assay [6] (10 nM); 83.9% in assay [6] (1000 nM); 71.5% in assay [6] (10000 nM). In addition, the normalised viability amounted to 93.3% in assay [7] (10 nM), 109% in assay [7] (1000 nM) and 89.3% in assay [7] (10000 nM).

For the molecule `CC(=O)c1c(C)c2cnc(Nc3ccc(N4CCNCC4)cn3)nc2n(C2CCCC2)c1=O` [Palbociclib], the drug sensitivity score in assay [8], in assay [9], in assay [10], in assay [11], in [12] and in assay [13] was 0 throughout. Besides, the drug sensitivity score in assay [14], in assay [15], in assay [16], in assay [17], in [18] and in [19] was 0 throughout. The drug sensitivity score in [20], in [21], in assay [22], in [23] and in assay [24] was 0 in each case.

Consider `CC[C@@H]1C(=O)OC[C@@H]1Cc1cncn1C` [Pilocarpine], for which the drug sensitivity score in assay [8], in assay [9], in [10], in assay [11], in assay [12] and in [13] was 0 throughout. Also, the drug sensitivity score in assay [14], in assay [15], in assay [16], in assay [25], in assay [17] and in [18] was 0 throughout. In addition, the drug sensitivity score in assay [21], in assay [22], in assay [23] and in assay [24] was 0 in each case. Further, the normalised viability worked out at 85.2% in assay [1] (40 nM); 107% in [1] (4000 nM); 113% in assay [1] (40000 nM); 110% in assay [2] (12 nM); 103% in assay [2] (120 nM); 98.2% in [2] (400 nM). Moreover, the normalised viability in [3] (40 nM) was 95.6%; in [3] (4000 nM), 95%; in assay [3] (40000 nM) it was 104%; in [4] (12 nM), 98.1%; in assay [4] (120 nM), 98.3%; in [4] (400 nM) it was 101%. For the same molecule, the normalised viability in [5] (40 nM) was 95.2%; in assay [5] (4000 nM) it was 99%; in [5] (40000 nM), 109%; in assay [6] (40 nM), 101%; in assay [6] (4000 nM), 102%; in assay [6] (40000 nM), 108%. Moreover, the figures for the normalised viability in [7] (40 nM), in [7] (4000 nM) and in [7] (40000 nM) were 104%, 92.2% and 92.8%, respectively.

Turning to `CC1(C)CCC(CN2CCN(c3ccc(C(=O)NS(=O)(=O)c4ccc(NCC5CCOCC5)c([N+](=O)[O-])c4)c(Oc4cnc5[nH]ccc5c4)c3)CC2)=C(c2ccc(Cl)cc2)C1` [ABT-199], the drug sensitivity score in assay [8] came to 1.45; in assay [9] it was 0; in assay [10], 0; in assay [11] it was 3.14; in [12], 0.378; in [13] it was 0. Further, the drug sensitivity score in assay [14], in assay [15], in [16], in assay [25], in [17] and in assay [18] was 0 throughout. Besides, the drug sensitivity score came out at 13.3 in assay [19]; 0 in [20]; 0 in [21]; 0 in assay [22]; 0 in assay [23].
